PMC7555839 (Frontiers in Microbiology, 2020)
Like-named read-outs stand apart in the source and are kept apart here.

Experiments:
[1] = tested on: S. aureus USA300; test: Induced tolerance assay (23 days); settings: for MIC: Staphylococcus aureus
[2] = tested on: Salmonella typhimurium TA1537; test: Ames test; settings: for Mutagenicity ratio (MR): TA1537, 4 μg/well
[3] = tested on: S. aureus ATCC BAA-1556; test: Broth microdilution (MIC/MBC); type: cell-based; settings: Staphylococcus aureus, ATCCBAA1556; ATCC BAA-1556, human clinical isolate
[4] = tested on: Staphylococcus epidermidis RP62a; test: Broth microdilution (MIC/MBC); type: cell-based; settings: human clinical isolate
[5] = tested on: Escherichia coli E2 (in house strain); test: Broth microdilution (MIC/MBC); type: cell-based; settings: E2, human clinical isolate
[6] = tested on: Enterococcus faecalis JEO72G7B; test: Broth microdilution (MIC/MBC); type: cell-based; settings: veterinary clinical isolate
[7] = tested on: MRSA USA300; test: Transmission electron microscopy; type: cell-based, Staphylococcus aureus; settings: concentration corresponding to the MIC, 1 h, vs untreated control
Method: To elucidate the interaction between JBC 1847 and MRSA USA300, transmission electron microscopy (TEM) was carried out. Bacterial cultures were inoculated in 10 ml MHB and cultivated at 37°C for 5 h, with shaking, until mid-exponential growth phase ([…]). […] An untreated control was also prepared. The five samples were placed on ice until being prepared for TEM. This included a fixation step in 2% glutaraldehyde in 0.15 M sodium phosphate buffer (pH 7.2). Subsequently, the fixed cells were washed three times and postfixed with 0.2% OsO4 (osmium tetroxide) in H2O/0.15 M sodium phosphate buffer (pH 7.2) for 1 h. The samples were then dehydrated with graded acetone, and then embedded in epoxy resin. Ultrathin sections of the samples were prepared using Formvar-coated copper grids, which were stained using 3% uranyl acetate. The samples were placed in a Philips CM 100 Transmission EM (Philips, Eindhoven, Netherlands) and exposed to 120 keV electron energy.

[8] = tested on: Staphylococcus aureus USA300 JE2; test: Broth microdilution (MIC/MBC); type: cell-based; settings: USA300 JE2, human clinical isolate
[9] = tested on: S. epidermidis 105 (in house strain); test: Broth microdilution (MIC/MBC); type: cell-based; settings: Staphylococcus epidermidis; strain 105, human clinical isolate
[10] = tested on: Enterococcus faecium ATCC 700221; test: Broth microdilution (MIC/MBC); type: cell-based; settings: ATCC700221, ATCC 700221, human clinical isolate
[11] = tested on: Salmonella typhimurium TA100
[12] = tested on: S. aureus CC398 (in house strain); test: Broth microdilution (MIC/MBC); type: cell-based; settings: Staphylococcus aureus; CC398, veterinary clinical isolate
[13] = tested on: MRSA strain 43484; test: Mouse skin (wound) infection model, topical treatment; type: in vivo, Staphylococcus aureus; settings: 50 μl topical twice daily for 3 days, female mice, skin biopsies day 4
Method: To study the effect of topical treatment with JBC 1847 against MRSA strain 43484, a mouse skin infection model was established. Initially, female mice (18–22 g) were orally treated with 45 μl nurofen (20 mg ibuprofen/ml) and anaesthetized with 0.15 ml s.c. of Zoletil mix. The fur was removed from an area of 6 cm^2 and a part of epidermis was subsequently scraped off to obtain a 1 cm^2 superficial skin lesion. The mice were inoculated with 10 μl of a saline solution containing approximately 10^7 CFU. The day after inoculation, topical treatment with 50 μl test compound was initiated and performed twice daily for a 3-day period. Fucidic acid was included as a positive control, and vehicle treatment was included as a negative control. Through the entire study, the behavior and clinical signs of the mice were carefully observed. Mice were killed the day after last treatment, and skin biopsies from the wounded area were collected. The skin samples were homogenized using a Dispomixer and serially diluted in saline/Triton X. To determine the bacterial concentration, 20 μl spots were transferred to MRSA Brilliance agar plates (Oxoid, Thermo Scientific, Roskilde, Denmark) and incubated 20–48 h at 35°C.
Data were statically analyzed and visualized using RStudio v3.6.3 ([R Core Team, 2020]) and Microsoft excel. In general, the values reflecting the bacterial concentration (CFU/ml) were transformed into a logarithmic scale. In the growth and viability assay, the mean numbers of the bacterial concentrations from the triplicates were plotted against time and standard deviations shown as error bars. To investigate differences in bacterial concentration between treatment groups in the in vivo assay, multiple group comparisons were performed using ANOVA and P < 0.05 considered significant. The data was visualized in a standard box plot.

[14] = tested on: Salmonella typhimurium TA98
[15] = tested on: Escherichia coli mutant [wp2 (pKM101)]
[16] = tested on: eight Gram-positive pathogenic bacteria; test: Broth microdilution, summary over Gram-positive isolates; type: cell-based

Compound: CC(C)=CCCC(C)CC[N+](C)(C)CCCN1c2ccccc2Sc2ccccc21 (stereo not drawn) [JBC 1847]
- MIC ([1]; USA300, 24 h, read-out: MIC Day 1): 0.5 µg/mL
- MIC ([1]; USA300, 96 h, read-out: Highest MIC): 3.5 µg/mL
- MIC ([1]; USA300, 96 h, read-out: MIC values after day 4): 1 to 2.5 µg/mL
- MIC ([1]; USA300, 552 h, read-out: MIC Day 23): 3.5 µg/mL
- Increase in MIC ([1]; tolerance assay, during the 23 days): 7 fold
- Mutagenicity ratio (MR) ([2]; absence of S9): above 2
- Mutagenicity ratio (MR) ([2]; presence of S9): above 2
- Mean number of reverse mutated colonies ([2]; TA1537, + S9, 1.5 μg/well): 2.00 ± 2.65
- Mean number of reverse mutated colonies ([2]; TA1537, + S9, 10 μg/well): 0.33 ± 0.58
- Mean number of reverse mutated colonies ([2]; TA1537, + S9, 64 μg/well): 0.0
- Mean number of reverse mutated colonies ([2]; TA1537, −S9, 1.5 μg/well): 5.00 ± 1.00
- Mean number of reverse mutated colonies ([2]; TA1537, −S9, 64 μg/well): 0.0
- MBC [3]: 0.5 µg/mL
- MIC [3]: 0.5 µg/mL
- MIC [4]: 0.5 µg/mL
- MBC [5]: 8 µg/mL
- MIC [5]: 8 µg/mL
- MBC [6]: 1 µg/mL
- MIC [6]: 1 µg/mL
- TEM appearance of bacterial cells [7]: clearly lysed and the plasma membrane destroyed
- MBC [8]: 0.5 µg/mL
- MIC ([8]; read-out: MIC): 0.5 µg/mL
- MIC [9]: 0.5 µg/mL
- MBC [10]: 2 to 4 µg/mL
- MIC [10]: 2 µg/mL
- Mean number of reverse mutated colonies ([11]; TA100, + S9, 1.5 μg/well): 21.33 ± 2.08
- Mean number of reverse mutated colonies ([11]; TA100, + S9, 4 μg/well): 19.00 ± 5.29
- Mean number of reverse mutated colonies ([11]; TA100, + S9, 10 μg/well): 13.67 ± 1.53
- Mean number of reverse mutated colonies ([11]; TA100, + S9, 64 μg/well): 0.0
- Mean number of reverse mutated colonies ([11]; TA100, −S9, 1.5 μg/well): 24.33 ± 3.21
- Mean number of reverse mutated colonies ([11]; TA100, −S9, 4 μg/well): 26.67 ± 2.08
- Mean number of reverse mutated colonies ([11]; TA100, −S9, 10 μg/well): 18.00 ± 5.57
- Mean number of reverse mutated colonies ([11]; TA100, −S9, 25 μg/well): 0.0
- Mean number of reverse mutated colonies ([11]; TA100, −S9, 64 μg/well): 0.0
- MBC [12]: 0.5 µg/mL
- MIC [12]: 0.5 µg/mL
- Reduction of bacterial counts compared with the vehicle ([13]; 1% solution): 3.0 log10 CFU
- Reduction of bacterial counts compared with the vehicle ([13]; 2%): 3.7 log10 CFU
- Mean number of reverse mutated colonies ([14]; TA98, + S9, 1.5 μg/well): 11.00 ± 2.65
- Mean number of reverse mutated colonies ([14]; TA98, + S9, 4 μg/well): 11.33 ± 3.79
- Mean number of reverse mutated colonies ([14]; TA98, + S9, 10 μg/well): 13.67 ± 4.04
- Mean number of reverse mutated colonies ([14]; TA98, + S9, 64 μg/well): 0.0
- Mean number of reverse mutated colonies ([14]; TA98, −S9, 1.5 μg/well): 13.00 ± 2.00
- Mean number of reverse mutated colonies ([14]; TA98, −S9, 4 μg/well): 9.00 ± 2.00
- Mean number of reverse mutated colonies ([14]; TA98, −S9, 10 μg/well): 9.67 ± 3.51
- Mean number of reverse mutated colonies ([14]; TA98, −S9, 25 μg/well): 0.0
- Mean number of reverse mutated colonies ([14]; TA98, −S9, 64 μg/well): 0.0
- Mean number of reverse mutated colonies ([15]; + S9, 1.5 μg/well): 51.33 ± 12.86
- Mean number of reverse mutated colonies ([15]; + S9, 4 μg/well): 40.67 ± 9.07
- Mean number of reverse mutated colonies ([15]; + S9, 10 μg/well): 40.67 ± 13.32
- Mean number of reverse mutated colonies ([15]; + S9, 25 μg/well): 9.67 ± 2.08
- Mean number of reverse mutated colonies ([15]; + S9, 64 μg/well): 0.0
- Mean number of reverse mutated colonies ([15]; −S9, 1.5 μg/well): 33.00 ± 2.65
- Mean number of reverse mutated colonies ([15]; −S9, 4 μg/well): 39.33 ± 5.69
- Mean number of reverse mutated colonies ([15]; −S9, 10 μg/well): 17.33 ± 7.09
- Mean number of reverse mutated colonies ([15]; −S9, 64 μg/well): 0.0
- MIC values (range over isolates) [16]: 0.5 to 2 µg/mL
